Source: patent US20230031406A1, “COMPOUNDS AND COMPOSITIONS FOR TREATING CONDITIONS ASSOCIATED WITH NLRP ACTIVITY” (Novartis AG, priority 2018, published 2023)

tested on: PMA-differentiated THP-1 cells; experiment: IL-1β production in PMA-differentiated THP-1 cells stimulated with gramicidin (hTHP-1 assay containing 2% fetal bovine serum; Procedures 1 and 2); assay type: cell-based, human; settings: Homo sapiens, THP-1, Table B2; 2% fetal bovine serum; class symbols; read-out: hTHP-1 IC50
Method in brief: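 THP-1 cells were differentiated with PMA (20 ng/ml, 16-18 h), detached, and plated at 50,000 cells/well in RPMI 1640 with 2% FBS. They were pre-treated with compound (0.0017–100 μM, 0.37% DMSO) for 1 h, then stimulated with gramicidin (5 μM) for 2 h. Supernatant IL-1β was measured by HTRF.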

IC50, 1000 to 5000 nM:
CCc1nc2c(c(NC(=O)N=S(N)(=O)c3ccn(C(F)F)n3)c1C1CC1)CCC2 (stereo not shown) [Compound 629, N′-((3-cyclopropyl-2-ethyl-6,7-dihydro-5H-cyclopenta[b]pyridin-4-yl)carbamoyl)-1-(difluoromethyl)-1H-pyrazole-3-sulfonimidamide]
C[C@@H]1CCc2c1nc1c(c2NC(=O)N=S(N)(=O)c2ccn(C)n2)CCC1 (stereo partly drawn) [Compound 639, 1-Methyl-N′-(((R)-3-methyl-1,2,3,5,6,7-hexahydrodicyclopenta[b,e]pyridin-8-yl)carbamoyl)-1H-pyrazole-3-sulfonimidamide]
C[C@@H]1CCc2c1nc1c(c2NC(=O)N=S(N)(=O)c2ccn(-c3ccccc3)n2)CCC1 (stereo partly shown) [Compound 646a]

IC50, 5000 to 30000 nM:
Cc1nc2c(c(NC(=O)N=S(N)(=O)c3cc(C(C)(C)O)cs3)c1C(C)C)CCC2 (stereo not shown) [Compound 622, 4-(2-Hydroxypropan-2-yl)-N′-((3-isopropyl-2-methyl-6,7-dihydro-5H-cyclopenta[b]pyridin-4-yl)carbamoyl)thiophene-2-sulfonimidamide]
CC(C)(O)c1cccc(S(N)(=O)=NC(=O)Nc2c3c(nc4c2CCC4)CCC3)c1 (stereo not shown) [Compound 625, N′-((1,2,3,5,6,7-hexahydrodicyclopenta[b,e]pyridin-8-yl)carbamoyl)-3-(2-hydroxypropan-2-yl)benzenesulfonimidamide]
CC1(C)CCc2c1nc1c(c2NC(=O)N=S(N)(=O)c2cnn(C(F)F)c2)CCC1 (stereo not shown) [Compound 637, 1-(Difluoromethyl)-N′-((3,3-dimethyl-1,2,3,5,6,7-hexahydrodicyclopenta[b,e]pyridin-8-yl)carbamoyl)-1H-pyrazole-4-sulfonimidamide]
NS(=O)(=NC(=O)Nc1c2c(nc3c1CCC31CC1)CCC2)c1cnn(C(F)F)c1 (stereo not shown) [Compound 638, 1-(Difluoromethyl)-N′-((1′,5′,6′,7′-tetrahydro-2′H-spiro[cyclopropane-1,3′-dicyclopenta[b,e]pyridin]-8′-yl)carbamoyl)-1H-pyrazole-4-sulfonimidamide]
Cc1c(C2(C)CC2)nc2c(c1NC(=O)N=S(N)(=O)c1cnc(C(C)(C)O)s1)CCC2 (stereo not shown) [Compound 641, 2-(2-Hydroxypropan-2-yl)-N′-((3-methyl-2-(1-methylcyclopropyl)-6,7-dihydro-5H-cyclopenta[b]pyridin-4-yl)carbamoyl)thiazole-5-sulfonimidamide]

IC50, 200 to 1000 nM:
Cc1nc2c(c(NC(=O)N=S(N)(=O)c3cc(C(C)(C)O)cs3)c1C1CC1)CCC2 (stereo not shown) [Compound 623, N′-((3-cyclopropyl-2-methyl-6,7-dihydro-5H-cyclopenta[b]pyridin-4-yl)carbamoyl)-4-(2-hydroxypropan-2-yl)thiophene-2-sulfonimidamide]
Cc1nc2c(c(NC(=O)N=S(N)(=O)c3cnc(C(C)(O)CO)s3)c1C(C)C)CCC2 (stereo not shown) [Compound 627, 2-(1,2-Dihydroxypropan-2-yl)-N′-((3-isopropyl-2-methyl-6,7-dihydro-5H-cyclopenta[b]pyridin-4-yl)carbamoyl)thiazole-5-sulfonimidamide]
Cc1c(C(F)(F)F)nc2c(c1NC(=O)N=S(N)(=O)c1ccn(C(C)C)n1)CCC2 (stereo not shown) [Compound 628, 1-Isopropyl-N′-((3-methyl-2-(trifluoromethyl)-6,7-dihydro-5H-cyclopenta[b]pyridin-4-yl)carbamoyl)-1H-pyrazole-3-sulfonimidamide]
CCc1nc2c(c(NC(=O)N=S(N)(=O)c3cnc(C(C)(C)O)s3)c1C1CC1)CCC2 (stereo not shown) [Compound 630, N′-((3-cyclopropyl-2-ethyl-6,7-dihydro-5H-cyclopenta[b]pyridin-4-yl)carbamoyl)-2-(2-hydroxypropan-2-yl)thiazole-5-sulfonimidamide]
Cc1c(C(F)(F)F)nc2c(c1NC(=O)N=S(N)(=O)c1sc(C(C)(C)O)cc1F)CCC2 (stereo not shown) [Compound 632, 3-Fluoro-5-(2-hydroxypropan-2-yl)-N′-((3-methyl-2-(trifluoromethyl)-6,7-dihydro-5H-cyclopenta[b]pyridin-4-yl)carbamoyl)thiophene-2-sulfonimidamide]
C[C@@H]1CCc2c1nc1c(c2NC(=O)N=S(N)(=O)c2sc(CN(C)C)cc2F)CCC1 (stereo partly drawn) [Compound 636c, 5-((Dimethylamino)methyl)-3-fluoro-N′-(((R)-3-methyl-1,2,3,5,6,7-hexahydrodicyclopenta[b,e]pyridin-8-yl)carbamoyl)thiophene-2-sulfonimidamide]

IC50, 40 to 200 nM:
Cc1c(C(F)(F)F)nc2c(c1NC(=O)N=S(N)(=O)c1cc(C(C)(C)O)cs1)CCC2 (stereo not shown) [Compound 624, 4-(2-Hydroxypropan-2-yl)-N′-((3-methyl-2-(trifluoromethyl)-6,7-dihydro-5H-cyclopenta[b]pyridin-4-yl)carbamoyl)thiophene-2-sulfonimidamide]
Cc1c(C2CC2)nc2c(c1NC(=O)N=S(N)(=O)c1nc(C(C)(C)O)cs1)CCC2 (stereo not shown) [Compound 626, N′-((2-cyclopropyl-3-methyl-6,7-dihydro-5H-cyclopenta[b]pyridin-4-yl)carbamoyl)-4-(2-hydroxypropan-2-yl)thiazole-2-sulfonimidamide]
CCc1nc2c(c(NC(=O)N=S(N)(=O)c3sc(C(C)(C)O)cc3F)c1C1CC1)CCC2 (stereo not shown) [Compound 631, N′-((3-cyclopropyl-2-ethyl-6,7-dihydro-5H-cyclopenta[b]pyridin-4-yl)carbamoyl)-3-fluoro-5-(2-hydroxypropan-2-yl)thiophene-2-sulfonimidamide]
CCn1ccc(S(N)(=O)=NC(=O)Nc2c3c(nc4c2CC[C@H]4C)CCC3)n1 (stereo partly drawn) [Compound 634, 1-Ethyl-N′-(((R)-3-methyl-1,2,3,5,6,7-hexahydrodicyclopenta[b,e]pyridin-8-yl)carbamoyl)-1H-pyrazole-3-sulfonimidamide]
CC(C)(O)c1sc(S(N)(=O)=NC(=O)Nc2c3c(nc4c2CCC4(C)C)CCC3)nc1CO (stereo not shown) [Compound 642, N′-((3,3-dimethyl-1,2,3,5,6,7-hexahydrodicyclopenta[b,e]pyridin-8-yl)carbamoyl)-4-(hydroxymethyl)-5-(2-hydroxypropan-2-yl)thiazole-2-sulfonimidamide]
Cc1c(C(C)C)nc2c(c1NC(=O)N=S(N)(=O)c1sc(C(C)(C)O)cc1F)CCC2 (stereo not shown) [Compound 645, 3 -Fluoro-5-(2-hydroxypropan-2-yl)-N′-((2-isopropyl-3-methyl-6,7-dihydro-5H-cyclopenta[b]pyridin-4-yl)carbamoyl)thiophene-2-sulfonimidamide]

same assay, conditions: Table B2; 2% fetal bovine serum; class symbols; read-out: hTHP-1 IC50

IC50, 5000 to 30000 nM:
CC(O)c1nc(C(C)(C)O)sc1S(=N)(=O)NC(=O)Nc1c2c(nc3c1CCC3)CCC2 (stereo not shown) [Compound 643, N-((1,2,3,5,6,7-hexahydrodicyclopenta[b,e]pyridin-8-yl)carbamoyl)-4-(1-hydroxyethyl)-2-(2-hydroxypropan-2-yl)thiazole-5-sulfonimidamide]

IC50, 200 to 1000 nM:
CC1(C)CCc2c1nc1c(c2NC(=O)N=S(N)(=O)c2sc(C(C)(O)CO)cc2F)CCC1 (stereo not shown) [Compound 640, 5-(1,2-Dihydroxypropan-2-yl)-N′-((3,3-dimethyl-1,2,3,5,6,7-hexahydrodicyclopenta[b,e]pyridin-8-yl)carbamoyl)-3-fluorothiophene-2-sulfonimidamide]
